# Assay results: patent publication US20250066379A1, “ANTIMALARIAL AGENTS” (Merck Sharp & Dohme LLC, priority 2021, published 2025)
# Tested on: parasite
# Experiment: Parasite LDH growth assay (Parasite Assay)
# Assay type: cell-based, Plasmodium falciparum
# Details: Plasmodium falciparum, 72 h, ring stage parasites, 72 hours growth at 37° C., LDH readout of parasite growth
# Experimental: Assessing Antiparasite Potency in a Parasite LDH Growth Assay (Parasite Assay) The parasite stock was maintained at 4% haematocrit in RPMI-Hepes media 30 buffered with sodium bicarbonate and supplemented with 5% heat inactivated human serum and 0.5% albumax. Approximately 42 hours prior to the potency assay being set up, parasites were synchronized with 5% sorbitol to select for ring stage parasites. On the day of assay set up, a blood smear of the parasite culture was Giemsa stained and counted. The parasitemia was 35 adjusted to 0.7% rings and the haematocrit was diluted to 2% in RPMI-Hepes media buffered with sodium bicarbonate and supplemented with 5% heat inactivated human serum and 0.5% albumax. 30 ul of diluted parasites are then added into 10 μl of media+compound in pre-prepared Greiner TC assay plates. Parasite assay plates were placed in gassed humidified boxes in single layer and allowed to incubate at 37° C. for 72 hours. After 72 hours growth, assay plates are sealed with parafilm and frozen flat, in single file at −80° C. overnight. On the following day, assay plates were allowed to thaw at room temperature for 4 hours to which an LDH assay was performed to measure parasite growth.
row,Structure (SMILES),EC50 [nM]
1,"CCC12CCCCCc3ccc4c(c3)[C@H](CC(C)(C)O4)NC(=O)c3ccc4c(c3)[C@@H]([C@H](COC)CO4)N(C(=N)N1)C(=O)C2 (mixture of isomers) [Example 16B, rac-(1R,18S,27R)-5-ethyl-3-imino-27-(methoxymethyl)-16,16-dimethyl-15,25-dioxa-2,4,19-triazahexacyclo[19. 6.2.22,5.211,14.013, 18.024,28] tritriaconta-11,13,21,23,28,30-hexaene-20,33-dione]",3.4
2,"CCC12CCCC3CC3c3ccc4c(c3)[C@H](CC(C)(C)O4)NC(=O)c3ccc4c(c3)[C@@H]([C@H](COC)CO4)N(C(=N)N1)C(=O)C2 (mixture of isomers) [Example 17, rac-(12R,13R,22S)-8-ethyl-10-imino-13-(methoxymethyl)-24,24-dimethyl-15,25-dioxa-9,11,21-triazaheptacyclo[20. 6.2.28,11.216,19.02, 4.012,17.026,30] tetratriaconta-1(29),16(32),17,19 (31),26(30),27-hexaene-20,33-dione]",18.9
3,"CC[C@]12CCC/C=C/c3ccc4c(c3)[C@H](CCO4)NC(=O)c3ccc4c(c3)[C@@H](CCO4)N(C(=N)N1)C(=O)C2 (racemic) [Example 18, rac-(1R,5R,9E,18S)-5-ethyl-3-imino-15,25-dioxa-2,4,19-triazahexacyclo[19. 6.2.22,5.211,14.013, 18.024,28] tritriaconta-9,11,13,21,23,28,30-heptaene-20,33-dione]",6
4,"CC[C@]12CCCCCc3ccc4c(c3)[C@H](CCO4)NC(=O)c3ccc4c(c3)[C@@H](CCO4)N(C(=N)N1)C(=O)C2 (racemic) [Example 19, rac-(1R,5R,18S)-5-ethyl-3-imino-15,25-dioxa-2,4,19-triazahexacyclo[19. 6.2.22,5.211,14.013, 18.024,28] tritriaconta-11,13,21,23,28,30-hexaene-20,33-dione]",4.8
5,"CCC12CC/C=C/c3ccc4c(c3)[C@H](CC(C)(C)O4)NC(=O)c3ccc4c(c3)[C@@H](CCO4)N(C(=N)N1)C(=O)C2 (mixture of isomers) [Example 20, rac-(1R,8E,17S)-5-ethyl-3-imino-15,15-dimethyl-14,24-dioxa-2,4,18-triazahexacyclo[18. 6.2.22,5.210,13.012, 17.023,27] dotriaconta-8,10,12,20,22,27,29-heptaene-19,32-dione]",3.6
6,"CC[C@]12CCCC3CC3c3ccc4c(c3)[C@H](CCO4)NC(=O)c3ccc4c(c3)[C@@H](CCO4)N(C(=N)N1)C(=O)C2 (mixture of isomers) [Example 21, rac-(8R,12R,22S)-8-ethyl-10-imino-15,25-dioxa-9,11,21-triazaheptacyclo[20. 6.2.28,11.216,19.02, 4.012,17.026,30] tetratriaconta-1(29),16(32),17,19 (31),26(30),27-hexaene-20,33-dione]",5.1
7,"CC[C@]12CCCCCc3ccc4c(c3)OC(C)(C)C[C@@H]4NC(=O)c3ccc4c(c3)[C@@H](CCO4)N(C(=N)N1)C(=O)C2 (racemic) [Example 22, rac-(1R,5R,19S)-5-ethyl-3-imino-17,17-dimethyl-16,26-dioxa-2,4,20-triazahexacyclo[20. 6.2.22,5.111,15.014, 19.025,29] tritriaconta-11(31),12,14,22,24, 29-hexaene-21,33-dione]",57.4
8,"CCC12CCCCC/C=C\c3ccc4c(c3)OC(C)(C)C[C@@H]4NC(=O)c3ccc4c(c3)[C@@H](CCO4)N(C(=N)N1)C(=O)C2 (racemic) [Example 23, rac-(1R,11Z,21S)-5-ethyl-3-imino-19,19-dimethyl-18,28-dioxa-2,4,22-triazahexacyclo[22. 6.2.22,5.113,17.016, 21.027,31] pentatriaconta-11,13(33),14,16,24, 26,31-heptaene-23,35-dione]",7.5
